pIC50: −log10 of the molar value.

The experiment has as its target T1, MAGL (Homo sapiens, UniProt Q99685).
T1 sequence (Q99685 1-303): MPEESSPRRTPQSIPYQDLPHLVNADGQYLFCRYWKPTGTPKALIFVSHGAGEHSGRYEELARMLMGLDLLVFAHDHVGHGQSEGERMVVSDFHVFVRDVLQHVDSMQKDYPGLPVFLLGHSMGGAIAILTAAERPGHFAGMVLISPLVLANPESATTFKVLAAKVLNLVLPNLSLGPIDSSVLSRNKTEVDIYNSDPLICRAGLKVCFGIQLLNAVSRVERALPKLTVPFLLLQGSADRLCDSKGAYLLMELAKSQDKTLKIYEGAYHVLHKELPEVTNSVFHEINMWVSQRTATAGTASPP
The experiment in a line: 2-AG assay: MAGL inhibition followed by hydrolysis of 2-arachidonoylglycerol to arachidonic acid, mass spectrometry. The class given is biochemical. As to conditions: measured in 2-AG assay (footnote [a]); substrate 2-arachidonoylglycerol 8 μM, 30 min at RT. The method in brief: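 Test compounds (final […], 3-fold steps) preincubated 15 min at RT with […] in 50 mM Tris, 1 mM EDTA, 0.01% Tween; 8 μM 2-arachidonoylglycerol then added for 30 min at RT. Acetonitrile quench; arachidonic acid measured by RapidFire SPE–MS/MS, activity from arachidonic acid/d8-arachidonic acid ratio.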
Usually pIC50 stands for the IC50 on a negative log10 scale, so that one unit is a factor of ten. Lower therefore signals a high IC50. As for `N#CC1(c2ccc(C#CC3CN(C(=O)N4CC[C@@H]5OCC(=O)N[C@@H]5C4)C3)cc2)CC1` [Example 178, 1-[4-[2-[1-[(4aR,8aS)-3-Oxo-4,4a,5,7,8,8a-hexahydropyrido[4,3-b][1,4]oxazine-6-carbonyl]azetidin-3-yl]ethynyl]phenyl]cyclopropane-1-carbonitrile], the pIC50 was 7.25. For `O=C1CO[C@H]2CCN(C(=O)N3CC(O)(C#Cc4ccccc4Cl)C3)C[C@H]2N1` [Example 190, (4aR,8aS)-6-[3-[2-(2-Chlorophenyl)ethynyl]-3-hydroxyazetidine-1-carbonyl]-4,4a,5,7,8,8a-hexahydropyrido[4,3-b][1,4]oxazin-3-one] the value was 6.27. `O=C1CO[C@H]2CCN(C(=O)N3CC(C#Cc4ccc(C(F)(F)F)c(Cl)c4)C3)C[C@H]2N1` [Example 160, (4aR,8aS)-6-(3-((3-Chloro-4-(trifluoromethyl)phenyl)ethynyl)azetidine-1-carbonyl)hexahydro-2H-pyrido[4,3-b][1,4]oxazin-3(4H)-one]: the pIC50 was 9.00. This pIC50 is 2.73 log units higher than that of the compound before.

Take `O=C1CO[C@H]2CCN(C(=O)N3CC(C#Cc4ccc(Cl)cc4Cl)C3)C[C@H]2N1` [Example 134, (+)-(4aR,8aS)-6-(3-((2,4-Dichlorophenyl)ethynyl)azetidine-1-carbonyl)hexahydro-2H-pyrido[4,3-b][1,4]oxazin-3(4H)-one]: the pIC50 is 8.30. On to `Cc1cccc(Cl)c1C#CC1CN(C(=O)N2CC[C@@H]3OCC(=O)N[C@@H]3C2)C1` [Example 184, (4aR,8aS)-6-[3-[2-(2-Chloro-6-methylphenyl)ethynyl]azetidine-1-carbonyl]-4,4a,5,7,8,8a-hexahydropyrido[4,3-b][1,4]oxazin-3-one], for which the pIC50 was 8.22. `CN(c1ccc(C(F)(F)F)cc1)C1CCN(C(=O)N2CC[C@@H]3OCC(=O)N[C@@H]3C2)CC1` (racemic) [Example 136, rac-(4aR,8aS)-6-[4-[N-methyl-4-(trifluoromethyl)anilino]piperidine-1-carbonyl]-4,4a,5,7,8,8a-hexahydropyrido[4,3-b][1,4]oxazin-3-one] had a pIC50 of 7.66. Take `O=C1CO[C@H]2CCN(C(=O)N3CC(C#Cc4cccc(Cl)c4)C3)C[C@H]2N1` [Example 165, (4aR,8aS)-6-[3-[2-(3-Chlorophenyl)ethynyl]azetidine-1-carbonyl]-4,4a,5,7,8,8a-hexahydropyrido[4,3-b][1,4]oxazin-3-one]: the pIC50 was 8.10. This pIC50 lies 0.44 log units higher than the previous one. Consider `O=C1CO[C@H]2CCN(C(=O)N3CC([S+]([O-])c4ccc(C(F)(F)F)cc4Cl)C3)C[C@H]2N1` (single isomer, unassigned) [Example 147], for which the pIC50 is 4.90. `O=C1CO[C@H]2CCN(C(=O)N3CC(C[S+]([O-])c4ccc(C(F)(F)F)cc4Cl)C3)C[C@H]2N1` (single isomer, unassigned) [Example 154] showed a negative-log IC50 (pIC50) of 6.51. Turning to `O=C1CO[C@H]2CCN(C(=O)N3CC(C#Cc4ccccc4C(F)F)C3)C[C@H]2N1` [Example 182, (4aR,8aS)-6-[3-[2-[2-(Difluoromethyl)phenyl]ethynyl]azetidine-1-carbonyl]-4,4a,5,7,8,8a-hexahydropyrido[4,3-b][1,4]oxazin-3-one], the pIC50 was 7.85. This pIC50 is 1.34 log units higher than that of the compound before.

As to `O=C1CO[C@H]2CCN(C(=O)N3CC(C#Cc4ccc(C5(O)CC5)cc4)C3)C[C@H]2N1` [Example 180, (4aR,8aS)-6-[3-[2-[4-(1-Hydroxycyclopropyl)phenyl]ethynyl]azetidine-1-carbonyl]-4,4a,5,7,8,8a-hexahydropyrido[4,3-b][1,4]oxazin-3-one], the pIC50 is 7.42. As for `O=C1CO[C@H]2CCN(C(=O)N3CC(CNC(c4ccccc4)C(F)(F)F)C3)C[C@H]2N1` (stereo partly drawn) [Example 71, (4aR,8aS)-6-(3-(((2,2,2-Trifluoro-1-phenylethyl)amino)methyl)azetidine-1-carbonyl)hexahydro-2H-pyrido[4,3-b][1,4]oxazin-3(4H)-one], the figure is 6.98. For the compound `O=C1CO[C@H]2CCN(C(=O)N3CC(C#Cc4cccc(F)c4Cl)C3)C[C@H]2N1` [Example 172, (4aR,8aS)-6-(3-((2-Chloro-3fluorophenyl)ethynyl)azetidine-1-carbonyl)hexahydro-2H-pyrido[4,3-b][1,4]oxazin-3(4H)-one], the pIC50 was 7.80. For `CN(c1ccc(C(F)(F)F)cc1)C1CN(C(=O)N2CC[C@@H]3OCC(=O)N[C@@H]3C2)C1` (racemic) [Example 137, rac-(4aR,8aS)-6-[3-[N-methyl-4-(trifluoromethyl)anilino]azetidine-1-carbonyl]-4,4a,5,7,8,8a-hexahydropyrido[4,3-b][1,4]oxazin-3-one] the value was 5.96. `O=C1CO[C@H]2CCN(C(=O)N3CCC(C#Cc4cnccc4Cl)CC3)C[C@H]2N1` [Example 126, (+)-(4aR,8aS)-6-[4-[2-(4-Chloropyridin-3-yl)ethynyl]piperidine-1-carbonyl]-4,4a,5,7,8,8a-hexahydropyrido[4,3-b][1,4]oxazin-3-one] gave a negative-log IC50 (pIC50) of 6.51.

`O=C1CO[C@H]2CCN(C(=O)N3CC(C#Cc4ccc(C5CC5)cc4)C3)C[C@H]2N1` [Example 179, (4aR,8aS)-6-[3-[2-(4-Cyclopropylphenyl)ethynyl]azetidine-1-carbonyl]-4,4a,5,7,8,8a-hexahydropyrido[4,3-b][1,4]oxazin-3-one] showed a negative-log IC50 (pIC50) of 8.22.

In turn, `O=C1CO[C@H]2CCN(C(=O)N3CC(C#Cc4ccccc4OC(F)(F)F)C3)C[C@H]2N1` [Example 170, (4aR,8aS)-6-[3-[2-[2-(Trifluoromethoxy)phenyl]ethynyl]azetidine-1-carbonyl]-4,4a,5,7,8,8a-hexahydropyrido[4,3-b][1,4]oxazin-3-one] had a pIC50 of 8.40. For `O=C1CO[C@H]2CCN(C(=O)N3CCC(C#Cc4ccc(F)cc4Cl)CC3)C[C@H]2N1` [Example 128, (+)-(4aR,8aS)-6-[4-[2-(2-Chloro-4-fluorophenyl)ethynyl]piperidine-1-carbonyl]-4,4a,5,7,8,8a-hexahydropyrido[4,3-b][1,4]oxazin-3-one] the value was 7.64.

Values taken from patent US20210277020A1, “HETEROCYCLIC COMPOUNDS AS MONOACYLGLYCEROL LIPASE INHIBITORS” (Hoffmann-La Roche Inc., priority 2018, published 2021).
